Assays:
Human neurokinin (NK1) = target: T1, Human neurokinin (NK1) (Homo sapiens, UniProt P25103); experiment: Radioligand binding, human neurokinin NK1 membranes, filtration, [125I]-Substance P; details: compound at 10 μM, [125I]-Substance P; for A8: inhibition of radioligand binding: filtration
T1 construct: purchased Perkin Elmer Biosignal
Procedure, shortened: (§1)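 Filtration binding on cloned human receptor membranes (1 Unit/well), [125I]-Substance P for NK1 and [3H]-Diprenorphine for KOP, 1 h at room temperature. Filters PEI-presoaked, washed with cold 50 mM Tris-HCl pH 7.4, counted by scintillation; percent inhibition calculated, reference ligand defining non-specific binding.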

Human μ-opioid (MOP) = target: T2, Human μ-opioid (MOP) (Homo sapiens, UniProt P35372); experiment: Radioligand binding, human μ-opioid (MOP) membranes, FlashPlate, [3H]-Naloxone; details: compound at 10 μM, [3H]-Naloxone; for A7: inhibition of radioligand binding: FlashPlate
T2 construct: purchased Perkin Elmer Biosignal
T2 sequence (P35372 whole entry): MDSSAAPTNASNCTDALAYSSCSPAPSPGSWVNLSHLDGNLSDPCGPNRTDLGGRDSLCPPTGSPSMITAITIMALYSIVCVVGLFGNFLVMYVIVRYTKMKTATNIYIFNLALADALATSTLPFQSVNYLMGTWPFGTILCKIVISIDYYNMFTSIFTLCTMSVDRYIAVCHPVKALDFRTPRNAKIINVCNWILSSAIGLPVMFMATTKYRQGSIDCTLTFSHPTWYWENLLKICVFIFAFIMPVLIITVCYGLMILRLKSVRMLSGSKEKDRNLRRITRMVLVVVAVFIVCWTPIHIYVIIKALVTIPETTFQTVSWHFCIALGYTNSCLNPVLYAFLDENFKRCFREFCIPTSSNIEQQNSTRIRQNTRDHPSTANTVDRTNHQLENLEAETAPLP
Procedure, shortened: (§2)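 Cloned human receptor membranes were coated onto FlashPlate wells and incubated with radioligand and compound (added from a 0.5 mM DMSO daughter plate) for 1 hour at room temperature in the dark. Scintillation counting gave percent inhibition, with DMSO defining total and reference ligand defining non-specific binding.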

Human δ-opioid (DOP) = target: T3, Human δ-opioid (DOP) (Homo sapiens, UniProt P41143); experiment: Radioligand binding, human δ-opioid (DOP) membranes, FlashPlate, [3H]-Bremazocine; details: compound at 10 μM, [3H]-Bremazocine; for A1: inhibition of radioligand binding: FlashPlate
T3 construct: purchased Perkin Elmer Biosignal
T3 sequence (P41143 whole entry): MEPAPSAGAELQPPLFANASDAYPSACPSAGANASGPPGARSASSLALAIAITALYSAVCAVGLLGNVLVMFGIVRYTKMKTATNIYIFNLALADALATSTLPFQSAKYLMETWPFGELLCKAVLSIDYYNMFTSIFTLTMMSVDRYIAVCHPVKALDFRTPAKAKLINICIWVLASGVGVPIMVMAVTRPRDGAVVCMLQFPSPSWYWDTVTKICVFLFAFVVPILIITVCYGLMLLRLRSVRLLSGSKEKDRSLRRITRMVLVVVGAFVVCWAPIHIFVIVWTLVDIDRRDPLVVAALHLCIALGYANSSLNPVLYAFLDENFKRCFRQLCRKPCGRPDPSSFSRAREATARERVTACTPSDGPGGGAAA
Procedure, shortened: as §2

[1] = target: T4, Human neuropeptide Y (NPY-Y1) (Homo sapiens, UniProt P25929); experiment: Radioligand binding, human neuropeptide Y NPY-Y1 membranes, FlashPlate, [125I]-PYY; details: compound at 10 μM, [125I]-PYY; for A9: inhibition of radioligand binding: FlashPlate
T4 construct: purchased Perkin Elmer Biosignal
T4 sequence (P25929 1-384): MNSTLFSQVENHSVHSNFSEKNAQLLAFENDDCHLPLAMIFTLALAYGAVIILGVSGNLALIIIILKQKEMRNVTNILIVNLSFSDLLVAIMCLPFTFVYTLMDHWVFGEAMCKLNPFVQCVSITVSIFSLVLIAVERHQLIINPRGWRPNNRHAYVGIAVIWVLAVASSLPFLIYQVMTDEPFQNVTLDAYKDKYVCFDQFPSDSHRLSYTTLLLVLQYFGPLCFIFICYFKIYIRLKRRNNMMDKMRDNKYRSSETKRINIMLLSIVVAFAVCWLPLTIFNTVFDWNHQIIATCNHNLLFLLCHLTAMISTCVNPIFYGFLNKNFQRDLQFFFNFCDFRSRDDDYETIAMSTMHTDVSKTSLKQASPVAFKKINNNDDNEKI
Procedure, shortened: as §2

Human κ-Opioid (KOP) = target: T5, Human κ-Opioid (KOP) (Homo sapiens, UniProt P41145); experiment: Radioligand binding, human κ-opioid (KOP) membranes, filtration, [3H]-Diprenorphine; details: compound at 10 μM, [3H]-Diprenorphine; for A2: inhibition of radioligand binding: filtration
T5 construct: purchased Perkin Elmer Biosignal
T5 sequence (P41145 whole entry): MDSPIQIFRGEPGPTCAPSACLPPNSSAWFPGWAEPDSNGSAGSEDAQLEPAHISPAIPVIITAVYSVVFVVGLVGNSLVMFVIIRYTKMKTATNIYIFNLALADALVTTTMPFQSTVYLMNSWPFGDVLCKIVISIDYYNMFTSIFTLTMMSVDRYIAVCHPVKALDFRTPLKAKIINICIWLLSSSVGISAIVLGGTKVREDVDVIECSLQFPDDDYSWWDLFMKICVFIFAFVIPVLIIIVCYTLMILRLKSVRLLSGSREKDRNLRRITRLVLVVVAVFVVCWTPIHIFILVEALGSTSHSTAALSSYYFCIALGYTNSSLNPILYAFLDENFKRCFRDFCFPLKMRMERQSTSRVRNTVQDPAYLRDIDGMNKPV
Procedure, shortened: as §1

Human Melanocortin (MC4) = target: T6, Human Melanocortin (MC4) (Homo sapiens, UniProt P32245); experiment: Radioligand binding, human melanocortin MC4 membranes, FlashPlate, [125I]-NDP-αMSH; details: compound at 10 μM, [125I]-NDP-αMSH; for A4: inhibition of radioligand binding: FlashPlate
T6 construct: purchased Perkin Elmer Biosignal
T6 sequence (P32245 whole entry): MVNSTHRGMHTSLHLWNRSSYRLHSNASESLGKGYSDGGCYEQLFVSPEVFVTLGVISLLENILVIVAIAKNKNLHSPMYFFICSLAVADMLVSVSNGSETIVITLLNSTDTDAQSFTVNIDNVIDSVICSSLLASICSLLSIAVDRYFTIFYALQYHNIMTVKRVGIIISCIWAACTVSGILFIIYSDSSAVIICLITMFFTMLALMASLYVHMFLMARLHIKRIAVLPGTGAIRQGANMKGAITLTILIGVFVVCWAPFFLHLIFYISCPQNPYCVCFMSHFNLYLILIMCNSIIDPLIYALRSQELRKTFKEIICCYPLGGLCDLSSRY
Procedure, shortened: as §2

[2] = target: T7, Human melanin-concentrating hormone (MCH1) (Homo sapiens, UniProt Q99705); experiment: Radioligand binding, human melanin-concentrating hormone MCH1 membranes, FlashPlate, [125I]-S36057; details: compound at 10 μM; for A6: inhibition of radioligand binding: [125I]-S36057, FlashPlate
T7 construct: purchased Perkin Elmer Biosignal
T7 sequence (Q99705 whole entry): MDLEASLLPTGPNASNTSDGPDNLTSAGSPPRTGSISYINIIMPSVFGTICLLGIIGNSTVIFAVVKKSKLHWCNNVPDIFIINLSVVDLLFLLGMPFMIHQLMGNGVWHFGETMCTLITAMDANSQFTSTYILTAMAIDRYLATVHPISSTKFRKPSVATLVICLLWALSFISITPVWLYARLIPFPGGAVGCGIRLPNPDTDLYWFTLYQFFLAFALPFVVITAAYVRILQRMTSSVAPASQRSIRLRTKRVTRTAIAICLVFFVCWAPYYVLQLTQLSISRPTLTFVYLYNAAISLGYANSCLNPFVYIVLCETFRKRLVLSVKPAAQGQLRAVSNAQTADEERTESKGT
Procedure, shortened: as §2

Human opioid (ORL1) = target: T8, Human opioid (ORL1) (Homo sapiens, UniProt P41146); experiment: Radioligand binding, human opioid ORL1 membranes, FlashPlate, [125I]-Nociceptin; details: compound at 10 μM, [125I]-Nociceptin; for A10: inhibition of radioligand binding: FlashPlate
T8 construct: purchased Perkin Elmer Biosignal
T8 sequence (P41146 whole entry): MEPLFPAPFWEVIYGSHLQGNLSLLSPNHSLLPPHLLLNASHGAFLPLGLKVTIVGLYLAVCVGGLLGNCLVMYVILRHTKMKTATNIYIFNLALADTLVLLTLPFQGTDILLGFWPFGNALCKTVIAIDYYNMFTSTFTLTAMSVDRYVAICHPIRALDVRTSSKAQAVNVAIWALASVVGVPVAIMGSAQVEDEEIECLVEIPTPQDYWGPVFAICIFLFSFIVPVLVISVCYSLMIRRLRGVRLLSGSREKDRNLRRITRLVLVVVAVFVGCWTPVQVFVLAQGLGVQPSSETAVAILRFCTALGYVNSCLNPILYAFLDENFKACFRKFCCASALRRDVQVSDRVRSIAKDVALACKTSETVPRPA
Procedure, shortened: as §2

Human melanocortin (MC5) = target: T9, Human melanocortin (MC5) (Homo sapiens, UniProt P33032); experiment: Radioligand binding, human melanocortin MC5 membranes, FlashPlate, [125I]-NDP-αMSH; details: compound at 10 μM, [125I]-NDP-αMSH; for A5: inhibition of radioligand binding: FlashPlate
T9 construct: purchased Perkin Elmer Biosignal
T9 sequence (P33032 whole entry): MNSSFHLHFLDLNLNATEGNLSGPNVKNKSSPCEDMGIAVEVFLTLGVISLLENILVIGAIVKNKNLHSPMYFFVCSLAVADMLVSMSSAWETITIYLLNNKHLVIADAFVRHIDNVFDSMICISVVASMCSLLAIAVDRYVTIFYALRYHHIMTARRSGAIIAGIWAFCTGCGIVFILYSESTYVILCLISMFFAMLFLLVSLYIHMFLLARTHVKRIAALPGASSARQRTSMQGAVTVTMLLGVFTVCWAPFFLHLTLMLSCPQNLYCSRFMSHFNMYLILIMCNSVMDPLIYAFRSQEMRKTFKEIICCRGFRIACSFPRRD
Procedure, shortened: as §2

Mouse urotensin (mUR2) = target: T10, Mouse urotensin (mUR2) (Mus musculus, UniProt Q8VIH9); experiment: Radioligand binding, mouse urotensin mUR2 membranes, FlashPlate, [125I]-Urotensin II; details: compound at 10 μM, [125I]-Urotensin II; for A11: inhibition of radioligand binding: FlashPlate
T10 construct: purchased Perkin Elmer Biosignal
T10 sequence (Q8VIH9 1-385): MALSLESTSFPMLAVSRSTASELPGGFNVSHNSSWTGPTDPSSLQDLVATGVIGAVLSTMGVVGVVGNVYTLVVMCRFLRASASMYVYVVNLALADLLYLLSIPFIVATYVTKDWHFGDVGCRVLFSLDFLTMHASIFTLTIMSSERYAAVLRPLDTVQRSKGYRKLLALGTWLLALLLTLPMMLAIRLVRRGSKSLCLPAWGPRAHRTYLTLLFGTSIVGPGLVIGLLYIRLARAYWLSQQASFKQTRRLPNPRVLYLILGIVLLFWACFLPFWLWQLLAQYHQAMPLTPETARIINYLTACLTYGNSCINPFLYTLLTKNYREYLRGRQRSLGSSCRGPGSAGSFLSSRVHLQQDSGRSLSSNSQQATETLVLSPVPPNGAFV
Procedure, shortened: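 Cloned mouse urotensin (mUR2) receptor membranes from Perkin Elmer Biosignal were immobilized in FlashPlate microplates using a proprietary coating. Each well got 19.5 μl buffer, then 0.5 μl of DMSO, reference ligand, or compound. Adding 5 μl of [125I]-Urotensin II, diluted to 5× final concentration in binding buffer, started binding. Plates were sealed with TopSeal-A and incubated 1 hour at room temperature in the dark. Wells were counted for 30 seconds each on a TopCount after a 60-second delay, and percentage inhibition was calculated.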

Human Melanocortin (MC3) = target: T11, Human Melanocortin (MC3) (Homo sapiens, UniProt P41968); experiment: Radioligand binding, human melanocortin MC3 membranes, FlashPlate, [125I]-NDP-αMSH; details: compound at 10 μM, [125I]-NDP-αMSH; for A3: inhibition of radioligand binding: FlashPlate
T11 construct: purchased Perkin Elmer Biosignal
T11 sequence (P41968 whole entry): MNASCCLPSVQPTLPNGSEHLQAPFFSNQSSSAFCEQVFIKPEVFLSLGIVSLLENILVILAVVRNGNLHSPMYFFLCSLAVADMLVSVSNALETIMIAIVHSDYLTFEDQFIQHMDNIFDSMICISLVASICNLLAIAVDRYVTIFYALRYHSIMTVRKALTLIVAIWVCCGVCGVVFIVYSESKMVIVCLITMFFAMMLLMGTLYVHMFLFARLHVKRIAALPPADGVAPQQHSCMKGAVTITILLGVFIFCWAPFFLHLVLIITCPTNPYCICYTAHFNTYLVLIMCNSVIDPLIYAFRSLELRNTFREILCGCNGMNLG
Procedure, shortened: as §2

T1 sequence (P25103 whole entry): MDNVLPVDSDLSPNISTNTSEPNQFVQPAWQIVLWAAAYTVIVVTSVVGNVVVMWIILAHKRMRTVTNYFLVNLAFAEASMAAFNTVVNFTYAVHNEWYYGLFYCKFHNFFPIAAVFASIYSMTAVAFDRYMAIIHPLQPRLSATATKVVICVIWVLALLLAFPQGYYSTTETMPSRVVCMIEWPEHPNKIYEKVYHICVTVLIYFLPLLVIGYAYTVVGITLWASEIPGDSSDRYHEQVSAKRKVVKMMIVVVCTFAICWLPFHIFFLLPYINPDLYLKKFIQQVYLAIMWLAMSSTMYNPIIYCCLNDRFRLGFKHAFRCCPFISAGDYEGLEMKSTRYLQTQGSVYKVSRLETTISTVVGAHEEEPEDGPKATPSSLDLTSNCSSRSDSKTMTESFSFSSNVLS

Compound | A8: inhibition of radioligand binding (Human neurokinin (NK1)) | A7: inhibition of radioligand binding (Human μ-opioid (MOP)) | A1: inhibition of radioligand binding (Human δ-opioid (DOP)) | A9: inhibition of radioligand binding [1] | A2: inhibition of radioligand binding (Human κ-Opioid (KOP)) | A4: inhibition of radioligand binding (Human Melanocortin (MC4)) | A6: inhibition of radioligand binding [2] | A10: inhibition of radioligand binding (Human opioid (ORL1)) | A5: inhibition of radioligand binding (Human melanocortin (MC5)) | A11: inhibition of radioligand binding (Mouse urotensin (mUR2)) | A3: inhibition of radioligand binding (Human Melanocortin (MC3)) | further results
COCC1OC(OCc2ccc(Cl)cc2)C(NC(=O)CNC(=N)N)C(OCc2ccc3ccccc3c2)C1O (stereo not drawn) [compound 209] | + (“+” indicates greater than 50% inhibition at 10 μM) | − (“−” indicates less than 50% inhibition at 10 μM) | − (“−” indicates less than 50% inhibition at 10 μM) | − (“−” indicates less than 50% inhibition at 10 μM) | − (“−” indicates less than 50% inhibition at 10 μM) | + (“+” indicates greater than 50% inhibition at 10 μM) | − (“−” indicates less than 50% inhibition at 10 μM) | − (“−” indicates less than 50% inhibition at 10 μM) | + (“+” indicates greater than 50% inhibition at 10 μM) | − (“−” indicates less than 50% inhibition at 10 μM) | + (“+” indicates greater than 50% inhibition at 10 μM) | –
CSC1OC(COCc2ccc(Cl)cc2)C(O)C(OCc2ccc3ccccc3c2)C1NC(=O)CCNC(=N)N (stereo not drawn) [compound 309] | – | – | – | – | – | – | – | – | – | – | – | A8: inhibition of radioligand binding, human neurokinin (NK1) (Human neurokinin (NK1)): + (“+” indicates greater than 50% inhibition at 10 μM); A7: inhibition of radioligand binding, human μ-opioid (MOP) (Human μ-opioid (MOP)): − (“−” indicates less than 50% inhibition at 10 μM); A1: inhibition of radioligand binding, human δ-opioid (DOP) (Human δ-opioid (DOP)): − (“−” indicates less than 50% inhibition at 10 μM); A9: inhibition of radioligand binding, human neuropeptide Y (NPY-Y1) [1]: − (“−” indicates less than 50% inhibition at 10 μM); A2: inhibition of radioligand binding, human κ-opioid (KOP) (Human κ-Opioid (KOP)): − (“−” indicates less than 50% inhibition at 10 μM); A4: inhibition of radioligand binding, human melanocortin (MC4) (Human Melanocortin (MC4)): − (“−” indicates less than 50% inhibition at 10 μM); A6: inhibition of radioligand binding, human melanin-concentrating hormone (MCH1) ([2]; [125I]-S36057): − (“−” indicates less than 50% inhibition at 10 μM); A10: inhibition of radioligand binding, human opioid (ORL1) (Human opioid (ORL1)): − (“−” indicates less than 50% inhibition at 10 μM); A5: inhibition of radioligand binding, human melanocortin (MC5) (Human melanocortin (MC5)): + (“+” indicates greater than 50% inhibition at 10 μM); A11: inhibition of radioligand binding, mouse urotensin (mUR2) (Mouse urotensin (mUR2)): − (“−” indicates less than 50% inhibition at 10 μM); A3: inhibition of radioligand binding, human melanocortin (MC3) (Human Melanocortin (MC3)): − (“−” indicates less than 50% inhibition at 10 μM)
COCC1OC(OCCc2ccccc2)C(NC(=O)CCCNC(=N)N)C(OCc2ccc3ccccc3c2)C1O (stereo not drawn) [compound 229] | + (“+” indicates greater than 50% inhibition at 10 μM) | − (“−” indicates less than 50% inhibition at 10 μM) | − (“−” indicates less than 50% inhibition at 10 μM) | − (“−” indicates less than 50% inhibition at 10 μM) | − (“−” indicates less than 50% inhibition at 10 μM) | + (“+” indicates greater than 50% inhibition at 10 μM) | + (“+” indicates greater than 50% inhibition at 10 μM) | − (“−” indicates less than 50% inhibition at 10 μM) | + (“+” indicates greater than 50% inhibition at 10 μM) | − (“−” indicates less than 50% inhibition at 10 μM) | − (“−” indicates less than 50% inhibition at 10 μM) | –
